{
  "source": "ChEMBL document CHEMBL1201862",
  "about": "“PubChem BioAssay data set” (2004)",
  "key": {"[1]": {"assay": "IGROV1 ovarian cancer cell cytotoxicity, dose response, PAX8 inhibitor project, plate reader, dry powder samples (AID 743043)", "format": "functional, cell-based", "conditions": "IGROV-1"}, "Paired box protein Pax-8": {"biological_target": "Paired box protein Pax-8 (Homo sapiens, UniProt Q06710)", "sequence (Q06710 whole entry)": "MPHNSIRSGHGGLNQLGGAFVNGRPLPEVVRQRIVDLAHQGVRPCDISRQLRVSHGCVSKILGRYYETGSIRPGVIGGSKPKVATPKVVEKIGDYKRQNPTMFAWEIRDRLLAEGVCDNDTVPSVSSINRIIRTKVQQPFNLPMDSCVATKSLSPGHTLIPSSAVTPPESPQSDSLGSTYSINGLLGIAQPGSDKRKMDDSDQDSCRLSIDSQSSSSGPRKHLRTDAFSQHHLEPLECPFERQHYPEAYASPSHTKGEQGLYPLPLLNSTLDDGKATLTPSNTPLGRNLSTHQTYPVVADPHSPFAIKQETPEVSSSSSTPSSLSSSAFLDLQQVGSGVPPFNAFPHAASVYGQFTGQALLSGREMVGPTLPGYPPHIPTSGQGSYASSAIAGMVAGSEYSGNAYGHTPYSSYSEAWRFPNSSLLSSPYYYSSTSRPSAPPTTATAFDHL", "assay": "inhibitors of PAX8-driven TPO luciferase reporter, dose response, RMG-I cells, cherry-pick (AID 687027);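 further: luciferase reporter driven by Pax8 target thyroperoxidase promoter measured by SteadyGlo luminescence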", "format": "functional, cell-based"}, "[2]": {"assay": "cytotoxicity in OVCAR8 ovarian cancer cells, dose response, PAX8 project, cell-based, plate reader, dry powder samples (AID 743197)", "format": "functional", "conditions": "OVCAR-8"}, "[3]": {"assay": "NIH:OVCAR-3 ovarian cancer cell cytotoxicity, dose response, PAX8 inhibitor project, plate reader, dry powder samples (AID 743044)", "format": "functional, cell-based"}, "[4]": {"assay": "cytotoxicity toward NIH3T3 fibroblasts, dose response, counter-screen, cell-based, ATP luminescence, mouse fibroblasts (AID 2010);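 further: cells exposed to compound for about 90 hours before reading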", "format": "functional"}, "[5]": {"assay": "inhibitors of intracellular T. cruzi replication, confirmation, NIH3T3 host cells, beta-gal luminescence (AID 2044);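 further: luminescent beta-galactosidase reporter signal from transgenic T. cruzi replicating inside host cells; inhibitors lower the luminescence signal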", "format": "functional, cell-based"}, "[6]": {"assay": "microbe, parasite or virus in culture", "format": "functional", "conditions": "Mycobacterium tuberculosis"}, "[7]": {"biological_target": "T1, RNA-binding protein pos-1 (Caenorhabditis elegans, UniProt G5EF15)", "T1 sequence (G5EF15 whole entry)": "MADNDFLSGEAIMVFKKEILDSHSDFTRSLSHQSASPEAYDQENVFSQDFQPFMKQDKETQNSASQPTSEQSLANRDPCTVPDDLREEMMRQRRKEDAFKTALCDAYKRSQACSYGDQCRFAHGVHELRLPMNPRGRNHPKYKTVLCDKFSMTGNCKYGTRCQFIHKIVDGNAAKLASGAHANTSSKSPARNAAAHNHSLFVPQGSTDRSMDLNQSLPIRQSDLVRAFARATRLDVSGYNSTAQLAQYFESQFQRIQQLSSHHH", "assay": "inhibitors of POS-1/mex-3 RNA binding, dose response, biochemical, fluorescence polarization (AID 1964);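 further: purified POS-1 fused to maltose binding protein made in E. coli; potency of compounds blocking POS-1 binding to fluorescent RNA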"}, "[8]": {"biological_target": "T2, Zinc finger protein mex-5 (Caenorhabditis elegans, UniProt Q9XUB2)", "T2 sequence (Q9XUB2 whole entry)": "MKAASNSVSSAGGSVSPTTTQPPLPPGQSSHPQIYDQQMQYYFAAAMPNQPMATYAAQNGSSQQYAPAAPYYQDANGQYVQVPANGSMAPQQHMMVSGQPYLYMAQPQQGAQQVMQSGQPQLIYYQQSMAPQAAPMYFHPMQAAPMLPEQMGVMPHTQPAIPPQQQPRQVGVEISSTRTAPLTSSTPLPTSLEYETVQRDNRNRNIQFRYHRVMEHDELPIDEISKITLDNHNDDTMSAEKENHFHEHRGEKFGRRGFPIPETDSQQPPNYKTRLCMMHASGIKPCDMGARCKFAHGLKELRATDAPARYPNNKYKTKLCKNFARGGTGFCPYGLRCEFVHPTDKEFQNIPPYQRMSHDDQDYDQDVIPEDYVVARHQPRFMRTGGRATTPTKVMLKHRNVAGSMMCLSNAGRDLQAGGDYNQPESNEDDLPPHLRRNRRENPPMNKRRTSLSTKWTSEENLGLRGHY", "assay": "MEX-5/TCR-2 RNA interaction inhibitors, dose response, biochemical, C. elegans, fluorescence polarization (AID 1960)"}, "Nonstructural protein 1": {"biological_target": "Nonstructural protein 1 (Influenza A virus, UniProt Q194T2)", "sequence (Q194T2 whole entry)": "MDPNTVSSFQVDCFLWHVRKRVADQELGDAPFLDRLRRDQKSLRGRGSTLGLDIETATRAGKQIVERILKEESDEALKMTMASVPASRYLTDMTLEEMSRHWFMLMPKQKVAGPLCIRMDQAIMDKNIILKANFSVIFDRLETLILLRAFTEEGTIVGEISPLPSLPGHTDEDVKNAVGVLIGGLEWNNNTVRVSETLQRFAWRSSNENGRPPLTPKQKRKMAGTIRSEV", "format": "functional, Influenza A virus (A/California/07/2009(H1N1))"}, "[9]": {"assay": "Luminescence-based counterscreen assay for KLF5 inhibitors: dose response cell-based high throughput screening assay to identify cytotoxic compounds using the IEC-6 intestinal epithelial cell line. [Related pubchem assays: 1700 (Primary screen.), 1834 (Confirmation screen.), 1858 (Summary AID.), 1905 (Counterscreen.)]", "format": "functional"}, "Vero": {"test_system": "Vero", "assay": "cells", "format": "functional", "conditions": "Chlorocebus sabaeus"}, "[10]": {"biological_target": "T3, Corticotropin-releasing factor receptor 2/Corticotropin-releasing factor-binding protein (Homo sapiens, UniProt P24387+Q13324)", "T3 sequence (Q13324 whole entry)": "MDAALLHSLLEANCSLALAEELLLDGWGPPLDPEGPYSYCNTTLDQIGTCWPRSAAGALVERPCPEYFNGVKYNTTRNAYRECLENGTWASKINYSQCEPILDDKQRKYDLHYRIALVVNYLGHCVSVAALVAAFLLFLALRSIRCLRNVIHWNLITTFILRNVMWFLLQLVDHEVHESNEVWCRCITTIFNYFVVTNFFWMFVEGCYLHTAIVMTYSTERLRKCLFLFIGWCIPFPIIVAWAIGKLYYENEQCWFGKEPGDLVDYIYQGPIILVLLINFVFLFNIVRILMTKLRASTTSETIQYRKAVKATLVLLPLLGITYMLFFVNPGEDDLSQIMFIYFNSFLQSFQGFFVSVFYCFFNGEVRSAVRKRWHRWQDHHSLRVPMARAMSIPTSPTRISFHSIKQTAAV", "T3 sequence (P24387 whole entry)": "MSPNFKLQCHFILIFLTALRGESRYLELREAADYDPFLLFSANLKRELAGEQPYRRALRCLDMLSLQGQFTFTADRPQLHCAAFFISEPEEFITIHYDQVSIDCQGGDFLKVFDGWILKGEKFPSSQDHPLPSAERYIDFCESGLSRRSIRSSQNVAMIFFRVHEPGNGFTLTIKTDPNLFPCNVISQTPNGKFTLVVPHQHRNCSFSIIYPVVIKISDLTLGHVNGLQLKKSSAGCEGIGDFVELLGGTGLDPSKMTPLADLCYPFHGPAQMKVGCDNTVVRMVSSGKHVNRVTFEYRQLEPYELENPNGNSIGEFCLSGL", "assay": "activators of CRF receptor 2 with binding protein – uHTS hits, confirmation (AID 602473)", "format": "functional", "conditions": "read-out: EC50_Mean"}, "[11]": {"assay": "human group III sPLA2 inhibitors, dose response, biochemical, QFRET, IC50 (AID 743457);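 further: green fluorescence rise as the enzyme cleaves BODIPY PC-A2 in liposomes; potency for inhibition of the enzyme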"}, "[12]": {"assay": "HEK293T cytotoxicity, dose response, cytotoxicity control for miR-122 modulator project, cell-based, activator set, cherry-pick (AID 720690);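 further: HEK293T human cells scored for general mammalian cytotoxicity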", "format": "functional"}, "[13]": {"assay": "HEK293T cytotoxicity, dose response, cytotoxicity control for miR-122 modulator project, cell-based, inhibitor set, cherry-pick, set 2 (AID 720697)", "format": "functional"}, "[14]": {"assay": "intracellular Trypanosoma cruzi inhibitors in host cells – cell-based, plate reader, cherry-pick samples, set 3, dose response (AID 651818);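 further: compounds incubated with infected cells for about four days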", "format": "functional"}, "cells [15]": {"assay": "cells", "format": "functional, cell-based"}, "[16]": {"test_system": "Streptococcus sp. 'group A'", "assay": "growth inhibition of control SK(-) GAS strain, dose response, counter-screen for streptokinase expression inhibitor project, luminescence, kanamycin, BacTiterGlo, confirmation (AID 1900)", "format": "functional, organism-based"}, "cells [17]": {"assay": "cells", "format": "functional, cell-based", "remark": "listed apart in the source"}, "Streptococcus": {"test_system": "Streptococcus", "assay": "Group A Streptococcus viability loss, dose response, counter-screen for streptokinase expression inhibitor project, luminescence, BacTiterGlo (AID 1915);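 further: potency for reduction of bacterial viability or growth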", "format": "functional, organism-based"}},
  "note": "Activity calls are given as the source filed them.",
  "data": [
    {"smiles": "C[C@H](O)C#Cc1cnc2c(c1)C(=O)N([C@H](C)CO)C[C@@H](C)[C@@H](CN(C)Cc1ccc(-c3ccccc3)cc1)O2", "values": [
      {"measurement": "AC50", "setting": "[1]", "value": "25.6 µM (active)"},
      {"measurement": "AC50", "setting": "Paired box protein Pax-8", "value": "1.66 µM (active)"}
    ]},
    {"smiles": "Cc1noc(C)c1S(=O)(=O)Nc1ccc2c(c1)C(=O)N([C@H](C)CO)C[C@@H](C)[C@H](CN(C)C(=O)Nc1ccc(C(F)(F)F)cc1)OCCCC[C@@H](C)O2", "values": [
      {"measurement": "AC50", "setting": "[2]", "value": "38.2 µM (active)"},
      {"measurement": "AC50", "setting": "[3]", "value": "26.7 µM (active)"},
      {"measurement": "AC50", "setting": "Paired box protein Pax-8", "value": "7.41 µM (active)"}
    ]},
    {"smiles": "COc1ccc(C2c3[nH]c4ccccc4c3CCN2Cc2cccn2-c2ncccn2)cc1C", "note": "(stereo unspecified)", "values": [
      {"measurement": "EC50", "setting": "[4]", "value": "> 60 µM (inconclusive)"},
      {"measurement": "EC50", "setting": "[5]", "value": "1.28 µM (active)"},
      {"measurement": "CC50", "setting": "[6]", "value": "> 40 µM (active)"}
    ]},
    {"smiles": "c1ccc(-c2nnc(-c3ccccn3)nn2)nc1", "values": [
      {"measurement": "EC50", "setting": "[7]", "value": "> 300 µM (not active)"},
      {"measurement": "EC50", "setting": "[8]", "value": "49.8 µM (inconclusive)"},
      {"measurement": "CC50", "setting": "[6]", "value": "34.2 µM (active)"},
      {"measurement": "IC50", "setting": "Nonstructural protein 1", "value": "12.6 µM (active)"}
    ]},
    {"smiles": "CCOC(=O)c1sc(NC(=O)c2ccc3ncsc3c2)nc1C", "values": [
      {"measurement": "IC50", "setting": "[9]", "value": "> 39.8 µM (not active)"}
    ]},
    {"smiles": "CCC1(c2ccccc2)ON(c2c(Br)cccc2Br)C1=O", "note": "(stereo unspecified)", "values": [
      {"measurement": "CC50", "setting": "Vero", "value": "> 25 µM (active)"},
      {"measurement": "CC50", "setting": "[6]", "value": "21.4 µM (active)"}
    ]},
    {"smiles": "CC(C)CC(=O)NC(=S)NNC(=O)c1cccc([N+](=O)[O-])c1", "values": [
      {"measurement": "EC50", "setting": "[10]", "value": "> 53 µM (inactive)"},
      {"measurement": "IC50", "setting": "[11]", "value": "> 122 µM (inactive)"}
    ]},
    {"smiles": "C[C@@H]1CN([C@@H](C)CO)C(=O)c2cc(NC(=O)Nc3ccc(C(F)(F)F)cc3)ccc2O[C@@H]1CN(C)CC1CCCCC1", "values": [
      {"measurement": "AC50", "setting": "[12]", "value": "19.1 µM (active)"},
      {"measurement": "AC50", "setting": "[13]", "value": "4.35 µM (active)"},
      {"measurement": "AC50", "setting": "[14]", "value": "5.59 µM (active)"}
    ]},
    {"smiles": "Cc1ccc(C(=O)N/N=C/c2cc(Br)ccc2O)cn1", "values": [
      {"measurement": "IC50", "setting": "[9]", "value": "5.56 µM (active)"},
      {"measurement": "EC50", "setting": "cells [15]", "value": "16.1 µM (active)"},
      {"measurement": "EC50", "setting": "[16]", "value": "3.17 µM (active)"},
      {"measurement": "EC50", "setting": "cells [17]", "value": "> 350 µM (not active)"},
      {"measurement": "EC50", "setting": "Streptococcus", "value": "5.99 µM (active)"},
      {"measurement": "IC50", "setting": "Nonstructural protein 1", "value": "12.3 µM (active)"}
    ]}
  ]
}
